Entries after “also recorded” stand apart in the source; their conditions may differ. Like-named read-outs stand apart in the source and are kept apart here. Bounds are passed on as bounds.

The values that follow come from patent publication US12064464B2, “Plantaricin NC8 alpha beta markedly enhances the effects of antibiotics” (priority 2018, dated 2024).

In assay [1] the test system is S. epidermidis 126 (hGISE strain). Put plainly: Broth microdilution MIC/MBC. In kind it is cell-based, Staphylococcus epidermidis. From the text:
(§1) Staphylococcus aureus CCUG 35601 (MRSA, Culture Collection, University of Gothenburg) and Staphylococcus aureus ATCC 29213 (MSSA, ATCC, Manassas, VA). Staphylococcus epidermidis ATCC 12228 (ATCC, Manassas, VA), RP62A, N15 and 10 clinical isolates of Staphylococcus epidermidis that have previously been characterized. Isolated Escherichia coli, Enterococcus faecium (including VRE), Pseudomonas aeruginosa, Klebsiella pneumoniae, Enterobacter spp and Acinetobacter baumannii were obtained from Orebro University hospital. Isolated Streptococcus mutans, Streptococcus constellatus and Streptococcus anginosus were obtained from Malmo University. The bacteria were grown on Luria-Bertani (LB) agar plates, supplemented with 5% defibrinated horse blood, and incubated at 37° C. overnight. Single colonies were inoculated into 5 ml of LB broth and incubated on a shaker (300 rpm) at 37° C. overnight. The bacterial concentration was determined by viable count and adjusted to correlate with approximately 10^9 CFU/ml.
(§2) The broth microdilution method was used to determine minimal inhibitory concentration (MIC) and minimal bactericidal concentration (MBC). Two-fold serial dilutions of the peptides were used and the final concentrations ranged from 0.097-50 μM. […] The effect of bacteriocin-antibiotic combinations was accomplished by using the same concentration series of antibiotics with a constant concentration of PLNC8 αβ (3.1 μM) in all the wells. […] All experiments were repeated at least three times.
For orientation: Broth dilution looks for growth in wells or tubes with falling amounts of substance.

For assay [2], the system named is S. epidermidis 157 (hGISE strain). Put plainly: Broth microdilution MIC/MBC. The class given is cell-based, Staphylococcus epidermidis.
From the text: as §1, §2

In assay [3] the test system is S. epidermidis 154. In words: Broth microdilution MIC/MBC. The class given is cell-based, Staphylococcus epidermidis.
From the text: as §1, §2

The subject of assay [4] is S. epidermidis ATCC 12228. In words: Broth microdilution MIC/MBC. To be noted: for enhancement of the inhibitory effects of β1-20 and β7-20: co-incubation with α-peptide; for growth inhibition of S. epidermidis: single full-length or truncated peptide. The class given is cell-based, Staphylococcus epidermidis.
From the text: as §1, §2

The test system of assay [5] is S. aureus CCUG 35601 (MRSA). In words: Broth microdilution MIC/MBC. In kind it is cell-based, Staphylococcus aureus.
From the text: as §1, §2

Assay [6] relates to Pseudomonas aeruginosa. Put plainly: Broth microdilution MIC/MBC. The class given is cell-based. To be noted: P. aeruginosa, antibiotic alone, unit not given.
From the text: as §1, §2

Assay [7] in a line: Fluorescence leakage assay (CF release from liposomes). The settings on record: peptide alone. As to the method:
Liposomes were prepared by dry film formation, hydration and finally extrusion through a polycarbonate membrane to form monodisperse large unilamellar vesicles. […] A dry lipid film was formed by evaporation of the chloroform by nitrogen flow and overnight lyophilization. The film was hydrated with either 10 mM phosphate buffer (PB) pH 7 or 10 mM phosphate buffer saline (PBS) pH 7, and the solution was vortexed for 1 min and put on a shaker for 1 h before extruded 21 times through a 100 nm pore-sized polycarbonate membrane. For fluorescence leakage assay the lipid film was hydrated with buffer (PBS) containing self-quenching concentration (50 mM) of 5(6)-carboxyfluorescein (CF) (Sigma Aldrich) and liposomes were prepared as described above. Removal of unencapsulated CF was done by gel filtration using a PD-25 column (GE Healthcare, Uppsala, Sweden) and liposomes with encapsulated CF were eluted with PBS. Leakage of the liposome encapsulated fluorophore CF due to additions of the bacteriocins was recorded using a fluorescence plate reader (Infinite 200, Tecan, Austria) where λex=485 nm and λem=520 nm. CF was encapsulated at self-quenching concentration, and CF release results in an increased fluorescence signal. […] In order to estimate the maximum release from each sample a final addition of 0.5% Triton X-100 was made at the end of all measurements and the total amount of CF (100% release) was estimated after 15 min incubation. The CF release is presented as percentage release for each time interval (measurements taken every minute). The percentage CF release is calculated as 100×(F−F0)/(FT−F0) where F0 is the initial fluorescence intensity of CF before peptide addition, F is the fluorescence intensity of CF at time point t and FT is the maximum fluorescence after the addition of Triton X-100.

For assay [8], the system named is Enterococcus faecium. In words: Broth microdilution MIC/MBC. The class given is cell-based. The settings on record: antibiotic alone, unit inferred; for MIC: unit assumed.
From the text: as §1, §2

The test system of assay [9] is Escherichia coli. In words: Broth microdilution MIC/MBC. The settings on record: antibiotic alone, unit not given; for MBC: in µg/mL. The class given is cell-based.
From the text: as §1, §2

Assay [10] has as its system S. epidermidis. Put plainly: Broth microdilution MIC/MBC, strain not named. The settings on record: for MBC / MIC: Table 8, antibiotic alone. In kind it is cell-based, Staphylococcus epidermidis.
From the text: as §1, §2

[11] abbreviates: Staphylococcus epidermidis, 154.
[12] abbreviates: Staphylococcus epidermidis, ATCC12228.
The mark [13] stands for this setting: Vancomycin resistant E. faecium (VRE).
Where [14] appears, read: ESBL-producing E. coli, first isolate.
The mark [15] stands for this setting: ESBL-producing E. coli, second isolate.
The mark [16] stands for this setting: Non-ESBL E. coli, first isolate.
[17] abbreviates: Non-ESBL E. coli, second isolate.
The mark [18] stands for this setting: Table 3, MRSA, antibiotic alone.

In the case of `CN[C@H](CC(C)C)C(=O)N[C@H]1C(=O)N[C@@H](CC(N)=O)C(=O)N[C@H]2C(=O)N[C@H]3C(=O)N[C@H](C(=O)N[C@H](C(=O)O)c4cc(O)cc(O)c4-c4cc3ccc4O)[C@H](O)c3ccc(c(Cl)c3)Oc3cc2cc(c3O[C@@H]2O[C@H](CO)[C@@H](O)[C@H](O)[C@H]2O[C@H]2C[C@](C)(N)[C@H](O)[C@H](C)O2)Oc2ccc(cc2Cl)[C@H]1O` [Vancomycin], the MBC in assay [1] (Staphylococcus epidermidis) is 3.1 µg/mL; in assay [2] (Staphylococcus epidermidis), 6.25 µg/mL; in [3] (setting [11]), 3.1 µg/mL; in assay [4] (setting [12]), 3.1 µg/mL; in [5] (Staphylococcus aureus), 3.1 µg/mL. For the same compound, the MIC turned out to be 3.1 µg/mL in assay [1] (Staphylococcus epidermidis); 6.25 µg/mL in [2] (Staphylococcus epidermidis); 1.5 µg/mL in assay [3] (setting [11]); 1.5 µg/mL in assay [4] (setting [12]); 1.5 µg/mL in [5] (Staphylococcus aureus).
Consider `C[C@@H](O)[C@H]1C(=O)N2C(C(=O)O)=C(S[C@@H]3CN[C@H](C(=O)N(C)C)C3)[C@H](C)[C@H]12` [Meropenem, reference compound], for which the figures for the MBC in assay [6] (first isolate) and in [6] (second isolate) were 50 and 25, respectively. Moreover, the MIC in assay [6] (first isolate) and in assay [6] (second isolate) was 25 in each case.
Turning to “DLTTKLWSSWGYYLGKKARWNL (Lactobacillus plantarum NC8) [α1-22]”, the “disruption of liposome membranes (CF release)” value (from here on “disruption”) in assay [7] is “disrupted the membrane of the liposomes”. For the same compound, the “enhancement of the inhibitory effects of β1-20 and β7-20” value in [4] is on record as “not further enhanced; also recorded: did not further enhance”. Moreover, the “inhibitory and bactericidal effects on S. epidermidis” value in assay [4] (α-peptide in combination with the β-peptide) is “exerted inhibitory and bactericidal effects; also recorded: inhibited”.
Take “SVPTSVYTLGIKILWSAYKH (Lactobacillus plantarum NC8) [β1-20]”: in assay [7], the “disruption” value was “Disruption of the liposome membranes”. In addition, in [4], the “growth inhibition of S. epidermidis” value was “most efficiently inhibited; also recorded: most effective in inhibiting S. epidermidis; also recorded: inhibited”.
Gentamicin: the MBC in assay [4] (Table 2, antibiotic alone) was 0.31 µg/mL; in [8] (E. faecium, first isolate), greater than 50 µg/mL; in assay [8] (E. faecium, second isolate), 50 µg/mL; in [8] (setting [13]), greater than 50 µg/mL; in assay [9] (setting [14]), greater than 50; in assay [9] (setting [15]), 6.25. In addition, the MBC in assay [9] (setting [16]) was 1.56; in assay [9] (setting [17]), 3.125. Further, the MIC in assay [4] (Table 2, antibiotic alone) is 0.31 µg/mL; in [8] (E. faecium, first isolate), 50 µg/mL; in assay [8] (E. faecium, second isolate) it was 50 µg/mL; in assay [8] (setting [13]), greater than 50 µg/mL; in assay [9] (setting [14]), greater than 50; in assay [9] (setting [15]) it was 3.125. For the same compound, the MIC in assay [9] (setting [16]) and in assay [9] (setting [17]) was 1.56 each time.
Consider Teicoplanin, for which the MBC in assay [1] (Table 3, antibiotic alone) is 6.25 µg/mL; in assay [2] (Table 3, antibiotic alone), 25 µg/mL; in assay [3] (Table 3, antibiotic alone), 1.5 µg/mL; in assay [4] (Table 2, antibiotic alone), 1.5 µg/mL; in assay [5] (setting [18]), 3.1 µg/mL; in [8] (E. faecium, first isolate), greater than 50 µg/mL. Further, the MBC was 25 µg/mL in [8] (E. faecium, second isolate); 50 µg/mL in [8] (setting [13]); greater than 50 in assay [9] (setting [14]); greater than 50 in [9] (setting [15]); greater than 50 in assay [9] (setting [16]); greater than 50 in assay [9] (setting [17]). The MBC in assay [10] came to 1.5 µg/mL. In addition, the MIC in assay [1] (Table 3, antibiotic alone) was 3.1 µg/mL; in [2] (Table 3, antibiotic alone), 12.5 µg/mL; in assay [3] (Table 3, antibiotic alone) it was 1.5 µg/mL; in assay [4] (Table 2, antibiotic alone) it was 1.5 µg/mL; in [5] (setting [18]), 0.78 µg/mL; in [8] (E. faecium, first isolate), greater than 50 µg/mL. The MIC in assay [8] (E. faecium, second isolate) was 0.39 µg/mL; in [8] (setting [13]) it was 0.39 µg/mL; in assay [9] (setting [14]), greater than 50; in assay [9] (setting [15]), greater than 50; in assay [9] (setting [16]), greater than 50; in assay [9] (setting [17]) it was greater than 50. Besides, in assay [10], the MIC is 1.5 µg/mL.
With “YTLGIKILWSAYKHRKTIEKSFNKGFYH (Lactobacillus plantarum NC8) [β7-34]”, in assay [7], the “disruption” value was “Disruption of the liposome membranes”. The “growth inhibition of S. epidermidis” value in [4] is given as “inhibited”.
As to “DLTTKLWSSWGYYLG (Lactobacillus plantarum NC8) [α1-15]”, the “enhancement of the inhibitory effects of β1-20 and β7-20” value in assay [4] is “not further enhanced; also recorded: did not further enhance”.
With `CO[C@H]1/C=C/O[C@@]2(C)Oc3c(C)c(O)c4c(O)c(c(/C=N/N5CCN(C)CC5)c(O)c4c3C2=O)NC(=O)/C(C)=C\C=C\[C@H](C)[C@H](O)[C@@H](C)[C@@H](O)[C@@H](C)[C@H](OC(C)=O)[C@@H]1C` [Rifampicin], the MBC in assay [4] (Staphylococcus epidermidis, ATCC12228, Table 2, antibiotic alone, read-out: MBC) is 0.5 µg/mL; in assay [8] (E. faecium, first isolate), greater than 50 µg/mL; in assay [8] (E. faecium, second isolate), greater than 50 µg/mL; in assay [8] (setting [13]), 3.1 µg/mL; in assay [9] (setting [17]) it was 25; in [10] (Staphylococcus epidermidis, read-out: MBC), 0.5 µg/mL. For the same compound, the MIC in assay [4] (Staphylococcus epidermidis, ATCC12228, Table 2, antibiotic alone, read-out: MIC) is 0.25 µg/mL; in [8] (E. faecium, first isolate), greater than 50 µg/mL; in assay [8] (E. faecium, second isolate) it was 25 µg/mL; in assay [8] (setting [13]) it was less than 0.097 µg/mL; in assay [9] (setting [16]) it was 6.25; in [9] (setting [17]), 6.25. For the same compound, the MIC in assay [10] (Staphylococcus epidermidis, read-out: MIC) was determined as 0.25 µg/mL. The “effective amount of rifampicin” value in assay [10] (in the presence of L-PLNC8 αβ or D-PLNC8 αβ) turned out to be 0.0019 µg/mL.
As to `C[C@H]1COc2c(N3CCN(C)CC3)c(F)cc3c(=O)c(C(=O)O)cn1c23` [Levofloxacin, reference compound], in assay [6] (first isolate), the MBC is 2 and the MIC amounted to 1. Besides, in [6] (second isolate), the MBC was determined as 4 and the MIC came to 4.
“YTLGIKILWSAYKH (Lactobacillus plantarum NC8) [β7-20]”: the “disruption” value in assay [7] is recorded as “Disruption of the liposome membranes”. For the same compound, the “growth inhibition of S. epidermidis” value in assay [4] is recorded as “most efficiently inhibited; also recorded: inhibited”.
